Consider 25 compounds from patent US20250236608A1, “EGFR INHIBITORS” (Blueprint Medicines Corporation, priority 2022, published 2025).

pIC50: −log10 of the molar value.

In general, pIC50 refers to the IC50 on a negative log10 scale, so that one unit is a factor of ten.

In one test the target is EGFR L858R (Homo sapiens (Human), UniProt P00533, L858R). Description: Biochemical EGFR inhibition assay, EGFR L858R. To be noted: Caliper mobility shift; 1.0 mM ATP or ATP Km; read-out: Enz EGFR_L858R IC50.
In another test the target is EGFR (d746-750) (Homo sapiens (Human), UniProt P00533, DEL746-750). Description: Biochemical EGFR inhibition assay, EGFR (d746-750). The settings on record: Caliper mobility shift; 1.0 mM ATP or ATP Km; read-out: Enz EGFR_Exon19-del746-750 IC50.
For test [1], the target named is pEGFR (Tyr1068) in PC-9 cells (Ex19Del) (Homo sapiens (Human), UniProt P00533, DEL746-750). Description: PC-9 pEGFR AlphaLISA assay. The format is cell-based. To be noted: 4 hours incubation, p-EGFR (Tyr1068) AlphaLISA, read-out: Ext pEGFR_PC-9 Ex19Del IC50. The method, boiled down: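 Phospho-EGFR (Tyr1068) was quantified by AlphaLISA SureFire Ultra in lysates of PC-9 cells exposed for 4 h to compound (4-fold, 10-point dilutions).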
(In general: Bead proximity is the source of the signal in Alpha formats.)

Chain of EGFR (d746-750) (P00533 other isoform, or with tags, fused parts or gaps del 1-694/del 746-750 limits assumed): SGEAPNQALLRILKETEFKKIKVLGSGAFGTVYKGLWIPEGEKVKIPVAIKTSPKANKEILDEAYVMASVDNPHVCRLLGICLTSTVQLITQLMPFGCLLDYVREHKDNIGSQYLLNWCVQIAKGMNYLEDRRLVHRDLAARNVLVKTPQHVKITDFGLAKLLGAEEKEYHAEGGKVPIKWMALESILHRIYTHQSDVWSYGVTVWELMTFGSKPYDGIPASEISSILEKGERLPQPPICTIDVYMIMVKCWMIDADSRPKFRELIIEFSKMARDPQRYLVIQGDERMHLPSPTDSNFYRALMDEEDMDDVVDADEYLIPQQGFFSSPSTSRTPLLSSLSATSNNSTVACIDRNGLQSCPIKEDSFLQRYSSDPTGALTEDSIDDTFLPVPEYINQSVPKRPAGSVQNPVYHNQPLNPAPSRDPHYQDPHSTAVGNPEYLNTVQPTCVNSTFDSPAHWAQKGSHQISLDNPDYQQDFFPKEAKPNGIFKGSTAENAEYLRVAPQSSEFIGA
Chain of EGFR L858R (P00533 25-1210 L858R): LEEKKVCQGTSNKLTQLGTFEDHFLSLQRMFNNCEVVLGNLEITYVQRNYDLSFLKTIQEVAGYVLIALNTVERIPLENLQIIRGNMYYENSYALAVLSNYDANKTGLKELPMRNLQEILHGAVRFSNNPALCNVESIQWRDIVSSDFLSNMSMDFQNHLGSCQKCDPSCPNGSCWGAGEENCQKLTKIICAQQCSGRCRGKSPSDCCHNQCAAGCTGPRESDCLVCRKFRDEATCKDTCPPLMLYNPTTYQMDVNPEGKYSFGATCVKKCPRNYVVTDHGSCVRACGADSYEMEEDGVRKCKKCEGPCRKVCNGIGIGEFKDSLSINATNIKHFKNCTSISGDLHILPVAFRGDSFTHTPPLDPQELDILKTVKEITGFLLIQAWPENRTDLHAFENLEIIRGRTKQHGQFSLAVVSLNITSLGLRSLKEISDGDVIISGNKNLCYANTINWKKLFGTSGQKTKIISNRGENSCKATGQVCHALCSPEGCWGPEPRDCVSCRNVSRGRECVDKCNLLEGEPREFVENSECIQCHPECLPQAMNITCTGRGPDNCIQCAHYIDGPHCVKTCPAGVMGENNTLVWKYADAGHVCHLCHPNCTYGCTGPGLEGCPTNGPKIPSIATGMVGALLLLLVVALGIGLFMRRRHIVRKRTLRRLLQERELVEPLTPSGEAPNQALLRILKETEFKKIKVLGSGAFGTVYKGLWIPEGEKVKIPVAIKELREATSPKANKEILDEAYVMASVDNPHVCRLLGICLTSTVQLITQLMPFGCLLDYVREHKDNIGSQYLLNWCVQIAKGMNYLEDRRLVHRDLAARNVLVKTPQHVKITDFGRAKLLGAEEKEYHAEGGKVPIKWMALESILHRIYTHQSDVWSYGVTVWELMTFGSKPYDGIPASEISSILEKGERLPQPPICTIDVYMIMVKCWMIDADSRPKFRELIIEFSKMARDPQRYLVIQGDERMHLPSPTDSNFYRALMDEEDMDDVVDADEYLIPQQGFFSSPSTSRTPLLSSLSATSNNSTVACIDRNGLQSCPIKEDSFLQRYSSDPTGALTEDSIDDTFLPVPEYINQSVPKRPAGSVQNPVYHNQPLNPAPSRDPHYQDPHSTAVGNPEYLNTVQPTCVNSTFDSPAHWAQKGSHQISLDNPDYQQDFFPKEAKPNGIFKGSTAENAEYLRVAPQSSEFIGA
Chain of pEGFR (Tyr1068) in PC-9 cells (Ex19Del) (P00533 other isoform, or with tags, fused parts or gaps del 746-750): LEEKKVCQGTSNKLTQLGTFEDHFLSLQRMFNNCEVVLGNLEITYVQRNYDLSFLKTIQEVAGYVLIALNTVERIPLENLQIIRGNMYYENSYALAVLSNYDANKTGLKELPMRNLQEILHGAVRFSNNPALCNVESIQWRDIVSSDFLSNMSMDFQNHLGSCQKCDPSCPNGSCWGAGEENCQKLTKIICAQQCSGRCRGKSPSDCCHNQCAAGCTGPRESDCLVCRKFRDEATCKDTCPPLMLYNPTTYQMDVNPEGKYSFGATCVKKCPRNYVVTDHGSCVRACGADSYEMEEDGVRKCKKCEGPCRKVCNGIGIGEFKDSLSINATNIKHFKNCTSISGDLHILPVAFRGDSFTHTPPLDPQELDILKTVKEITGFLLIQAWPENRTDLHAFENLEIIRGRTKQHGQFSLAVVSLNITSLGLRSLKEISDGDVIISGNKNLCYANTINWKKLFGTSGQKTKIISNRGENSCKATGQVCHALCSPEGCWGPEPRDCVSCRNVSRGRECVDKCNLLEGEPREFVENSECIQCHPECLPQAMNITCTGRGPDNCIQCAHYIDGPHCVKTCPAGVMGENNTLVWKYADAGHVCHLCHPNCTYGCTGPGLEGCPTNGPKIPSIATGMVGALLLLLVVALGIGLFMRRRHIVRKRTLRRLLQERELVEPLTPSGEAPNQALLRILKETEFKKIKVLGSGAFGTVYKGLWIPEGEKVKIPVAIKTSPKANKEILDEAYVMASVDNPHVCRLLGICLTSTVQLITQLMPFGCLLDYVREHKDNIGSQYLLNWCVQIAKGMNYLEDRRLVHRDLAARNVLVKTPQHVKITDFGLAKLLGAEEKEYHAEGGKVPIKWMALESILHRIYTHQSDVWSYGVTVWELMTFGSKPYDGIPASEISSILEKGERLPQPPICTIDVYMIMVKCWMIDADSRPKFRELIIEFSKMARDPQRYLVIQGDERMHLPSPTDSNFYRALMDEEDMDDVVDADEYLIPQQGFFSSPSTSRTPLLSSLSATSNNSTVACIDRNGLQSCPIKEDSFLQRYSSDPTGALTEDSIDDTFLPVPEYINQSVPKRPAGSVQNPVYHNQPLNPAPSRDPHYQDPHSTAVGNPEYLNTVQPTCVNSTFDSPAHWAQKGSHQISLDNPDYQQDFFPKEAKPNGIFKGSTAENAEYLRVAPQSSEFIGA

Turning to `COc1cc2ncnc(-c3cn(C)nc3-c3ccccc3)c2nc1O[C@@H](C)c1cnnn1C` [Example 42, (S)-7-methoxy-6-(1-(1-methyl-1H-1,2,3-triazol-5-yl)ethoxy)-4-(1-methyl-3-phenyl-1H-pyrazol-4-yl)pyrido[3,2-d]pyrimidine], the figures for the pIC50 (at EGFR L858R; on EGFR (d746-750); in test [1]) were 8.02, 8.54 and 7.36, respectively.
On the same counts, the results for `COc1cc2ncnc(-c3cn(C)nc3-c3ccccc3)c2nc1NC(=O)C1(OC)CC1` [Example 436, 1-methoxy-N-(7-methoxy-4-(1-methyl-3-phenyl-1H-pyrazol-4-yl)pyrido[3,2-d]pyrimidin-6-yl)cyclopropane-1-carboxamide] are 8.10, 9.00 and 8.34.
On the same counts, the results for `CCC(=O)Nc1cc2c(-c3cn(C4CCOCC4)nc3-c3ccccc3)ncnc2cc1OC` [Example 248, N-(7-methoxy-4-(3-phenyl-1-(tetrahydro-2H-pyran-4-yl)-1H-pyrazol-4-yl)quinazolin-6-yl)propionamide] are 8.70, 8.82 and 8.89.
Consider `COc1cc2ncnc(-c3cn(CC(F)F)nc3-c3ccccc3)c2cc1C1(O)CCOCC1` [Example 127, 4-(4-(1-(2,2-difluoroethyl)-3-phenyl-1H-pyrazol-4-yl)-7-methoxyquinazolin-6-yl)tetrahydro-2H-pyran-4-ol], for which the results for the pIC50 (on EGFR L858R; on EGFR (d746-750); in test [1]) were 8.59, 8.85 and 8.59, respectively.
As for `COc1cc2ncnc(-c3cn(CC(F)F)nc3-c3ccccc3)c2cc1NC(=O)c1cnsc1` [Example 271, N-(4-(1-(2,2-difluoroethyl)-3-phenyl-1H-pyrazol-4-yl)-7-methoxyquinazolin-6-yl)isothiazole-4-carboxamide], the negative logarithm of the IC50 (pIC50) at EGFR L858R is 8.89; at EGFR (d746-750), 9.10; in test [1] it was 9.00.
The corresponding values for `COc1cc2ncnc(-c3cn(CC(F)F)nc3-c3ccccc3)c2nc1NC(=O)[C@H]1CCN1C` [Example 391, (R)—N-(4-(1-(2,2-difluoroethyl)-3-phenyl-1H-pyrazol-4-yl)-7-methoxypyrido[3,2-d]pyrimidin-6-yl)-1-methylazetidine-2-carboxamide] are 8.60, 8.89 and 9.15.
Turning to `COc1cc2ncnc(-c3cn(C)nc3-c3ccccc3)c2cc1NC(=O)c1cnccc1F` [Example 326, 4-fluoro-N-(7-methoxy-4-(1-methyl-3-phenyl-1H-pyrazol-4-yl)quinazolin-6-yl) nicotinamide], the pIC50 on EGFR L858R is 8.92; on EGFR (d746-750), 9.10; in test [1], 9.00.
On the same counts, the results for `CCOc1cc2ncnc(-c3cn(C)nc3-c3ccccc3)c2nc1NC(=O)C12CC(N(C)C)(C1)C2` [Example 420, 3-(dimethylamino)-N-(7-ethoxy-4-(1-methyl-3-phenyl-1H-pyrazol-4-yl)pyrido[3,2-d]pyrimidin-6-yl)bicyclo[1.1.1]pentane-1-carboxamide] are 7.52, 8.77 and 8.23.
Consider `COc1cc2ncnc(-c3cn(C)nc3-c3ccccc3)c2nc1NC(=O)C12CCCN1CCC2` [Example 368, N-(7-methoxy-4-(1-methyl-3-phenyl-1H-pyrazol-4-yl)pyrido[3,2-d]pyrimidin-6-yl)tetrahydro-1H-pyrrolizine-7a(5H)-carboxamide], for which the negative logarithm of the IC50 (pIC50) on EGFR L858R was 8.41; at EGFR (d746-750) it was 8.82; in test [1] it was 8.34.
The corresponding values for `CCC(=O)Nc1cc2c(-c3cn(C4COC4)nc3-c3ccccc3)ncnc2cc1OC` [Example 249, N-(7-methoxy-4-(1-(oxetan-3-yl)-3-phenyl-1H-pyrazol-4-yl)quinazolin-6-yl)propionamide] are 8.66, 8.85 and 8.68.
The corresponding values for `Cn1cc(-c2ncnc3cc(C#CCN4CCOCC4)c(NC(=O)C45CC(C4)C5)nc23)c(-c2ccccc2)n1` [Example 454, N-(4-(1-methyl-3-phenyl-1H-pyrazol-4-yl)-7-(3-morpholinoprop-1-yn-1-yl)pyrido[3,2-d]pyrimidin-6-yl)bicyclo[1.1.1]pentane-1-carboxamide] are 7.74, 8.32 and 7.96.
On the same counts, the results for `COc1cc2ncnc(-c3cn(C)nc3-c3ccccc3F)c2cc1OC(=O)N1CCOC[C@@H]1C` [Example 74, 4-(3-(2-fluorophenyl)-1-methyl-1H-pyrazol-4-yl)-7-methoxyquinazolin-6-yl (S)-3-methylmorpholine-4-carboxylate] are 6.08, 6.18 and 8.35.
Regarding `COc1cc2ncnc(-c3cn(C)nc3-c3ccccc3)c2cc1OC(=O)N1[C@H](C)CNC[C@@H]1C` [Example 87, 7-methoxy-4-(1-methyl-3-phenyl-1H-pyrazol-4-yl)quinazolin-6-yl (2R,6S)-2,6-dimethylpiperazine-1-carboxylate], the pIC50 on EGFR L858R was 8.31; at EGFR (d746-750) it was 8.68; in test [1], 8.24.
On the same counts, the results for `COCC1(C(=O)Nc2cc3c(-c4cn(C)nc4-c4ccccc4)ncnc3cc2OC)CCC1` [Example 214, N-(7-methoxy-4-(1-methyl-3-phenyl-1H-pyrazol-4-yl)quinazolin-6-yl)-1-(methoxymethyl)cyclobutane-1-carboxamide] are 8.80, 9.05 and 8.92.
For the compound `COc1cc2ncnc(-c3cn(C)nc3-c3ccccc3)c2cc1N1CCC[C@@H](O)C1` [Example 165, (R)-1-(7-methoxy-4-(1-methyl-3-phenyl-1H-pyrazol-4-yl)quinazolin-6-yl)piperidin-3-ol], the pIC50 is 8.47 at EGFR L858R, 8.77 on EGFR (d746-750) and 7.99 in test [1].
For `COc1cc2ncnc(-c3cn(C)nc3-c3ccccc3)c2nc1NC(=O)c1cccc(F)c1` [Example 313, 3-fluoro-N-(7-methoxy-4-(1-methyl-3-phenyl-1H-pyrazol-4-yl)pyrido[3,2-d]pyrimidin-6-yl)benzamide], the negative logarithm of the IC50 (pIC50) is 8.57 on EGFR L858R, 9.10 on EGFR (d746-750) and 8.42 in test [1].
With `CCC(=O)Nc1cc2c(-c3cnn(CC(F)F)c3-c3ccccc3)ncnc2cc1OC` [Example 500], the pIC50 on EGFR L858R was 8.54; on EGFR (d746-750) it was 8.15; in test [1], 7.25.
On the same counts, the results for `CCOc1cc2ncnc(-c3cn(CC)nc3-c3ccccc3)c2cc1CO` [Example 124, (7-ethoxy-4-(1-ethyl-3-phenyl-1H-pyrazol-4-yl)quinazolin-6-yl)methanol] are 8.89, 9.05 and 8.52.
On the same counts, the results for `COc1cc2ncnc(-c3cn(C)nc3-c3ccccc3F)c2nc1NC(=O)[C@@]12C[C@@H]1CN(C)C2` [Example 373, (1S,5S)—N-(4-(3-(2-fluorophenyl)-1-methyl-1H-pyrazol-4-yl)-7-methoxypyrido[3,2-d]pyrimidin-6-yl)-3-methyl-3-azabicyclo[3.1.0]hexane-1-carboxamide] are 8.66, 9.10 and 8.64.
As for `COc1cc2ncnc(-c3cn(C)nc3-c3ccccc3)c2cc1-c1cn(C)nc1C` [Example 150, 6-(1,3-dimethyl-1H-pyrazol-4-yl)-7-methoxy-4-(1-methyl-3-phenyl-1H-pyrazol-4-yl)quinazoline], the pIC50 on EGFR L858R was 8.66; at EGFR (d746-750) it was 8.92; in test [1] it was 8.82.
Turning to `Cn1cc(-c2ccc3c(-c4c[nH]nc4-c4cc(F)ccc4F)ncnc3c2)cn1` [Example 444, 4-(3-(2,5-difluorophenyl)-1H-pyrazol-4-yl)-7-(1-methyl-1H-pyrazol-4-yl)quinazoline], the pIC50 is 9.30 on EGFR L858R, 9.40 on EGFR (d746-750) and 9.30 in test [1].
Take `CCOc1cc2ncnc(-c3cn(C4CC4)nc3-c3ccccc3)c2cc1[C@@H](C)O` (single isomer, unassigned) [Example 111, (R)-1-(4-(1-cyclopropyl-3-phenyl-1H-pyrazol-4-yl)-7-ethoxyquinazolin-6-yl)ethan-1-ol or (S)-1-(4-(1-cyclopropyl-3-phenyl-1H-pyrazol-4-yl)-7-ethoxyquinazolin-6-yl)ethan-1-ol]: the negative logarithm of the IC50 (pIC50) at EGFR L858R was 8.85; at EGFR (d746-750), 9.15; in test [1], 8.60.
The corresponding values for `COc1cc2ncnc(-c3cn(C)nc3-c3ccccc3)c2cc1NC(=O)N1C[C@@H](C)N(C)C[C@@H]1C` [Example 182, (2S,5R)—N-(7-methoxy-4-(1-methyl-3-phenyl-1H-pyrazol-4-yl)quinazolin-6-yl)-2,4,5-trimethylpiperazine-1-carboxamide] are 8.39, 8.74 and 8.28.
For `COc1cc2ncnc(-c3cn(C)nc3-c3ccccc3)c2cc1NC(=O)c1cccnc1` [Example 325, N-(7-methoxy-4-(1-methyl-3-phenyl-1H-pyrazol-4-yl)quinazolin-6-yl)nicotinamide], the values for the pIC50 (at EGFR L858R; at EGFR (d746-750); in test [1]) were 8.77, 9.00 and 8.70, respectively.
On the same counts, the results for `COc1cc2ncnc(-c3cn(C)nc3-c3ccccc3)c2nc1-c1ccc2c(c1)CNC2=O` [Example 152, 5-(7-methoxy-4-(1-methyl-3-phenyl-1H-pyrazol-4-yl)pyrido[3,2-d]pyrimidin-6-yl) isoindolin-1-one] are 8.70, 9.00 and 8.72.
